Legend:
[1] = molecular target: T1, Maltase-glucoamylase (Homo sapiens, UniProt O43451); test: Inhibition of alpha-Glucosidase (unknown origin) using pNPG as substrate incubated for 20 mins by micro plate reader analysis
[2] = Inhibition of influenza A virus Neuraminidase using 2-(4-methylumbelliferyl)-a-D-acetylneuraminic acid as substrate incubated for 30 mins by fluorescence based analysis
[3] = molecular target: T1, Maltase-glucoamylase; test: Inhibition of alpha-glucosidase (unknown origin)

T1 sequence (O43451 whole entry): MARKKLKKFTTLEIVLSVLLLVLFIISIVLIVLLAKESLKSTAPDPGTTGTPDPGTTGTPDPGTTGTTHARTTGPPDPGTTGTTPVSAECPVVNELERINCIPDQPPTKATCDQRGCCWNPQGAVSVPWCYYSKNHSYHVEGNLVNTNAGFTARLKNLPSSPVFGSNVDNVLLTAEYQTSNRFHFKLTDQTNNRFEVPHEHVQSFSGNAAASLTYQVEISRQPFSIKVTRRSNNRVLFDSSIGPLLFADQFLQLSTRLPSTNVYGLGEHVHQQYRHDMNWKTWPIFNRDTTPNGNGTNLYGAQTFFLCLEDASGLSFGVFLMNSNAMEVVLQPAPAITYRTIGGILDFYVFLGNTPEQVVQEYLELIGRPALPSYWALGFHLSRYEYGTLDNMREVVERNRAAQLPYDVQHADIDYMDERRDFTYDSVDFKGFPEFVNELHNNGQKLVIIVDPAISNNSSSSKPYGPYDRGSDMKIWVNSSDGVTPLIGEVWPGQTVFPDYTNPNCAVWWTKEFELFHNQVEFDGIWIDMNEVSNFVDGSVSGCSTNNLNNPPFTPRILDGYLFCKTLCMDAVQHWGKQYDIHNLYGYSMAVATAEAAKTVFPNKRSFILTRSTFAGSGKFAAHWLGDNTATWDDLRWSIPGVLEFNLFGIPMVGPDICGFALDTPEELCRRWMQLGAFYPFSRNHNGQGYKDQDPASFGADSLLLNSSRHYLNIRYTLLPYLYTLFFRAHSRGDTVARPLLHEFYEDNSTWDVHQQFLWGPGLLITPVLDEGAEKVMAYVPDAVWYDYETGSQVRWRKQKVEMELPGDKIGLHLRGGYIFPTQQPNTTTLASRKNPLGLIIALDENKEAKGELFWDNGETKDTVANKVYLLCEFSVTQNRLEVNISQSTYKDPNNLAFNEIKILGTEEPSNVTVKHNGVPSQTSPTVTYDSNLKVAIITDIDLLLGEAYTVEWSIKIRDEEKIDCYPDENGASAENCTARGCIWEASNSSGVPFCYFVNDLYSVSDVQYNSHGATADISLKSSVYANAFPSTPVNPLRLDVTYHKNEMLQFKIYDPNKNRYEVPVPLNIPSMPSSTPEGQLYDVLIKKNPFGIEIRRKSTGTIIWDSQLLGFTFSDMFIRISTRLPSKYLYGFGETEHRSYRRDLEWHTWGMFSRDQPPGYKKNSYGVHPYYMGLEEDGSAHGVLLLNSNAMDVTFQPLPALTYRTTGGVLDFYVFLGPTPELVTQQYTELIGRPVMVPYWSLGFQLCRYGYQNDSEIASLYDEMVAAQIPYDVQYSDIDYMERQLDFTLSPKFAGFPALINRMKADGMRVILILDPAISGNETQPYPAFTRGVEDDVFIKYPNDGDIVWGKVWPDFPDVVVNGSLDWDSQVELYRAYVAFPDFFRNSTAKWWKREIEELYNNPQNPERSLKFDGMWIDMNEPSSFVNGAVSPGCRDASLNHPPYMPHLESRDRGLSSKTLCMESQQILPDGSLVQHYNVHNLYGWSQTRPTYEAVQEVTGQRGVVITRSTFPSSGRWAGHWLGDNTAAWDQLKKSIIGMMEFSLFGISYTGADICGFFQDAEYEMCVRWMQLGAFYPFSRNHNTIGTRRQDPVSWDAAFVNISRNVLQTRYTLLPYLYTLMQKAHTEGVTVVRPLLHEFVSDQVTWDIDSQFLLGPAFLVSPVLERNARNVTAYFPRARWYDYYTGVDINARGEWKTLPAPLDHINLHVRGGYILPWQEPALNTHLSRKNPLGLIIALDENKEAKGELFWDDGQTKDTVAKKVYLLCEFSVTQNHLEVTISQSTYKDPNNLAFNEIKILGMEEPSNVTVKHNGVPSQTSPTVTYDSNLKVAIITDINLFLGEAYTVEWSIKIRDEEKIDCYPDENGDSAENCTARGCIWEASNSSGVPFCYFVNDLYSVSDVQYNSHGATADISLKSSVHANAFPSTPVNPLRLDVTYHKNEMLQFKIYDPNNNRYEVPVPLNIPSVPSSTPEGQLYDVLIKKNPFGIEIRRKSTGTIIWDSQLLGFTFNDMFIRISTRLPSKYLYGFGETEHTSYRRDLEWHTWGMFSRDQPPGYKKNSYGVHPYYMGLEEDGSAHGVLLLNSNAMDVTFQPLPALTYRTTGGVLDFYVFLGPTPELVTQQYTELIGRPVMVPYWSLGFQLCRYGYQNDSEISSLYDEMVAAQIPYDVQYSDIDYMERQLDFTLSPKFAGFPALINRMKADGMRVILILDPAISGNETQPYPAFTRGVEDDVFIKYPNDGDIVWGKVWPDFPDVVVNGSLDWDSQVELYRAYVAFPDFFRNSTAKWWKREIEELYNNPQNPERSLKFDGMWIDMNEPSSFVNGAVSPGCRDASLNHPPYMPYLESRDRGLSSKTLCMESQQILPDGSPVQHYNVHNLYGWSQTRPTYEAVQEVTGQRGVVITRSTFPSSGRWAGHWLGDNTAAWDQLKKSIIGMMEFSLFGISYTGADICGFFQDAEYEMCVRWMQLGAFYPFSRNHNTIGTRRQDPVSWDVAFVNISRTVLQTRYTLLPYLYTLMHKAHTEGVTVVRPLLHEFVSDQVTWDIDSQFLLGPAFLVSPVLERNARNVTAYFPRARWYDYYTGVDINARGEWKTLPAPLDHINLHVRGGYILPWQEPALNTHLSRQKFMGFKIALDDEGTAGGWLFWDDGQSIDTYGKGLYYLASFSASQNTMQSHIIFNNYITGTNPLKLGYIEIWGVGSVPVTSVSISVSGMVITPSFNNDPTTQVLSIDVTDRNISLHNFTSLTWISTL

COc1cc2c(c(O)c1CO)C(=O)OC[C@@H]2O
IC50 [1]: 1410 µM

COC(=O)[C@@]1(C(=O)C(C)=O)C(C)=C(C)C=C2[C@]3(C=O)CC[C@H](OC(C)=O)C(C)(C)[C@H]3CC[C@@]21C
IC50 [2]: 0.0081 µM

CC(C)=CCc1cc(C[C@@]2(C(=O)O)OC(=O)C(OC(C)(C)[C@@H](O)Cc3cc(C[C@@]4(C(=O)O)OC(=O)C(O)=C4c4ccc(O)cc4)ccc3O)=C2c2ccc(O)cc2)ccc1O
IC50 [3]: 10.5 µM
